System: KB
Experiment: Cytotoxicity against human KB cells
Format: functional, cell-based

With COc1cc(C(=O)OCC(C)(C)CC2=CC(=O)c3ccccc3C2=O)c(OC)c2ccccc12 the IC50 was 12.5 µM.
